{
  "source": "paper PMC10938758",
  "about": "“A phenotypic screen of the Global Health Priority Box identifies an insecticide with anthelmintic activity” (Parasites & Vectors, 2024)",
  "key": {"[1]": {"tested_on": "adult females of H. contortus", "test": "Motility of H. contortus adult females (video scoring)", "set-up": "species or system Haemonchus contortus", "conditions": "40 μM", "procedure": "The activity of two test compounds was assessed on adult female specimens of H. contortus in an established assay. The compound was added in triplicate to the wells of a 24-well plate (Corning, USA) at a concentration of 40 μM in 500 μl of RPMI*. Two positive-control compounds, monepantel and moxidectin, and a negative control containing 1% (v/v) DMSO only were included in triplicate on the same plate. Three adult females were added to each of the triplicate wells containing either the test compound or the controls and placed in a CO2 incubator (10% [v/v] CO2, 38 °C, > 90% relative humidity) for 24 h. A video recording (30 s) of each well was taken at 3 h, 6 h, 12 h and 24 h during the total incubation period to assess the reduction in worm motility, which was scored as 3 (‘good’), 2 (‘low’), 1 (‘very low’) or 0 (‘no movement’; cf.). For each test or control compound, the motility scores for each of the triplicate wells were calculated, normalised with reference to the negative control (100% motility) and recorded as a percentage. A two-way ANOVA with a Tukey multiple comparison test was used to establish statistically significant differences in worm motility."}, "[2]": {"tested_on": "H. contortus larvae", "test": "H. contortus dose-response assay, larval development", "set-up": "species or system Haemonchus contortus", "conditions": "Haemonchus contortus, 168 h, read-out: IC50, inhibition of H. contortus larval development", "procedure": "The dose–response assay for H. contortus followed a well-established protocol; it was employed to evaluate the potency of hit compounds against this nematode. Test compounds were assessed individually for an effect on the motility of xL3s (10-point, twofold serial dilution in LB*, 40–0.16 μM). One compound, monepantel (prepared in the same manner as the test compounds), was used as a positive control. A solution of LB* was used as a negative control. The test and positive-control compounds were arrayed in triplicate across individual flat-bottom 96-well microplates, with six wells on each plate containing the negative control. Three hundred xL3s of H. contortus in 50 μl of LB* were added to each well to give a final volume of 100 μl. Plates were then placed in a CO2 incubator (10% [v/v] CO2, 38 °C, > 90% humidity). After 168 h of incubation, worm activity was captured using a WMicroTracker ONE unit. Over a period of 15 min, disturbance of an infrared beam in individual wells was recorded as a worm activity count. Raw activity counts for each well were normalised to the negative controls. The compound concentrations were log10-transformed and fitted using a variable-slope four-parameter equation, using the ordinary least squares fit model, employing GraphPad Prism (v.9.1.0). Larval development was established at 168 h of incubation with compound, as described previously. The development inhibition and phenotypes of larvae were examined microscopically. A one-way analysis of variance (ANOVA) with a Tukey multiple comparison test or an unpaired t-test was used to establish statistically significant differences in larval motility or development."}, "[3]": {"tested_on": "acetylcholine esterase (AChE)", "conditions": "in vitro and in vivo; direct or indirect effect not confirmed; cited from earlier work"}, "[4]": {"tested_on": "C. elegans young adults", "test": "C. elegans dose-response assay, motility", "set-up": "species or system Caenorhabditis elegans", "procedure": "The dose–response assay for C. elegans followed a well-established protocol and was employed to evaluate the potency of hit compounds against this nematode. Test and positive-control compounds as well as negative controls were prepared in 96-well microplates (cf.). One hundred C. elegans in 50 μl of LB* were added to each well to give a final volume of 100 μl. Plates were then placed in an incubator at 20 °C for 40 h. At 40 h, worm activity was captured using a WMicroTracker ONE unit. Raw activity counts for each well were normalised to the negative controls. The compound concentrations were log10-transformed and fitted using a variable-slope four-parameter equation, using the ordinary least squares fit model, employing GraphPad Prism (v.9.1.0). A one-way ANOVA with a Tukey multiple comparison test or an unpaired t-test was used to establish statistically significant differences in larval motility."}},
  "data": [
    {"compound": "CC(F)c1ncnc(NCCc2ccc(OC(F)(F)F)cc2)c1Cl", "note": "(centres unmarked) [MMV1794206, flufenerim]", "values": [
      {"measurement": "Reduction of motility of adult females of H. contortus", "setting": "[1]; 3 h", "value": "~ 33%"},
      {"measurement": "Reduction of motility of adult females of H. contortus", "setting": "[1]; 6 h", "value": "~89", "unit": "%"},
      {"measurement": "Reduction of motility of adult females of H. contortus", "setting": "[1]; 12 h", "value": 100, "unit": "%"},
      {"measurement": "Reduction of motility of adult females of H. contortus", "setting": "[1]; 24 h", "value": "~100", "unit": "%"},
      {"measurement": "IC50", "setting": "[2]", "value": 1200, "unit": "nM"},
      {"measurement": "AChE activity in whiteflies following treatment", "setting": "[3]", "value": "decrease in acetylcholine esterase (AChE) activity"},
      {"measurement": "Maximum motility inhibition (MMI), C. elegans", "setting": "[4]; 40 h of incubation", "value": 100, "unit": "%"},
      {"measurement": "IC50", "setting": "[4]; Caenorhabditis elegans, 40 h, read-out: IC50, C. elegans young adult motility, 40 h of incubation", "value": 220, "unit": "nM"}
    ]}
  ]
}
